Test results: paper PMC8762250, “Identification of Novel Chemical Scaffolds that Inhibit the Growth of Mycobacterium tuberculosis in Macrophages” (Frontiers in Pharmacology, 2022)
In brackets after ≈: the same amount, converted by molar mass. Like-named read-outs stand apart in the source and are kept apart here. Marks after values point to notes of the source that are not given here.

Columns and labels:
[1] = tested on: M. tuberculosis; assay: High content assay of intracellular M. tuberculosis growth in infected RAW264.7 macrophages; assay type: cell-based, Mycobacterium tuberculosis H37Rv-LP
Description: Compounds were obtained in 384-well plates as 10 mM DMSO stock solutions and tested as described ([Manning et al., 2017]). Briefly, assay plates were prepared in clear bottom, black 384-well plates with 30 μl cRPMI and 0.6 μl compound in columns 3–22 (final concentration of 10 μM compound, 1% DMSO). […] INH and STA were also included in dose response on each plate. RAW264.7 cells were infected with M. tuberculosis DREAM8 as described ([Manning et al., 2017]) at an MOI of 1 for 24 h and extracellular bacteria removed by washing. Cells were recovered using Accumax, harvested, washed and resuspended in serum-free RPMI; 30 μl of infected cells were dispensed into each well at 3,300 cells/well. Plates were incubated for 72 h, 10 μl of 5X SYBR Green I was added and plates were imaged with an ImageXpress Micro High Content Screening System (Molecular Devices) using a ×4 objective and FITC and Texas Red channels. MetaXpress was used to analyze images. The integrated intensity of M. tuberculosis or macrophages was calculated for each well. Growth inhibition was calculated for each test well by normalizing to the average integrated intensity of the DMSO control wells. IC50 was calculated as the compound concentration required to reduce bacterial growth by 50%. TC50 was calculated as the compound concentration required to reduce macrophage viability by 50%.

[2] = HepG2 cytotoxicity (CellTiter-Glo, 72 h); assay type: cell-based, human; conditions: human
Description: (§1) Cytotoxicity against HepG2 cells was measured after 72 h. Cells were seeded in 384-well plates at 1,800 cells per well. Compounds were added as a 10-point three-fold serial dilution after 24 h (final assay concentration of 1% DMSO). CellTiter-Glo® reagent (Promega) was added and relative luminescence units (RLU) measured. Data were normalized to the DMSO controls. Curves were fitted using the Levenberg–Marquardt algorithm; TC50 was calculated as the compound concentration required to reduce cell viability by 50%.
(§2) We further evaluated cytotoxicity using the HepG2 cell line cultured with either glucose or galactose in the medium (Table 2). HepG2 cells cultured with galactose rely on mitochondrial oxidative phosphorylation rather than glycolysis which increases their susceptibility to mitochondrial toxicants allowing us to identify compounds with mitochondrial toxicity ([Kamalian et al., 2015]).

[3] = tested on: HepG2 cells; assay: HepG2 cytotoxicity (CellTiter-Glo, 72 h); assay type: cell-based, human; conditions: for HepG2 cytotoxicity TC50 Galactose / HepG2 cytotoxicity TC50 Glucose: human, 72 h
Description: as §1, §2

[4] = tested on: M. tuberculosis; assay: Minimum inhibitory concentration in liquid medium (axenic culture); assay type: cell-based, Mycobacterium tuberculosis; conditions: Mycobacterium tuberculosis; for IC50: read-out: Anti-tubercular activity in axenic culture IC50
[5] = tested on: M. tuberculosis; parameters: method as in PMID 30466326; conditions: inhibitor of M. tuberculosis ref 20; cited from earlier work
[6] = tested on: RAW264.7 cells; assay: Macrophage viability in the same high content assay; conditions: for Intracellular activity Cytotoxicity TC50 / Intracellular RAW TC50: infected RAW264.7 macrophages; for Intracellular activity Cytotoxicity TC50: 72 h; for Intracellular RAW TC50: SAR tables 4-8
[7] = tested on: non-replicating M. tuberculosis; parameters: method as in Christophe et al., 2009; conditions: ref Christophe et al., 2009; cited from earlier work
[8] = Mycobacterium tuberculosis, RAW264.7, 72 h, M. tuberculosis in RAW264.7 cells, MOI 1, 72 h, read-out: Intracellular activity Anti-tubercular activity IC50
[9] = Mycobacterium tuberculosis, RAW264.7, in RAW264.7 macrophages, SAR tables 4-8, read-out: Intracellular Mtb IC50
[10] = HepG2 cytotoxicity IC50 Galactose
[11] = HepG2 cytotoxicity IC50 Glucose
[12] = 120 h, extracellular, 5 days, OD590
[13] = 120 h, extracellular, 5 days, OD590, read-out: Anti-tubercular activity in axenic culture IC90
[14] = axenic culture, SAR tables 4-8, read-out: Extracellular IC90

| SMILES | activity against intracellular M. tuberculosis [1] | IC50 [1, 8] [µM] | IC50 [1, 9] [µM] | IC50 at 72 h [2, 10] [µM] | IC50 at 72 h [2, 11] [µM] | HepG2 cytotoxicity TC50 Galactose [3] | HepG2 cytotoxicity TC50 Glucose [3] | IC50 [4, 12] [µM] | IC90 [4, 13] [µM] | IC90 [4, 14] [µM] | IC90 [5] [mg/L] | Intracellular activity Cytotoxicity TC50 [6] | Intracellular RAW TC50 [6] | Intracellular RAW TC50 ([6]; listed as 12) [µM] | selectivity index (TC50/IC50) ([6]; macrophage TC50 / intracellular IC50) | activity against non-replicating M. tuberculosis [7] | IC50 ([1]; in RAW264.7 macrophages, SAR tables 4-8, listed as 29, read-out: Intracellular Mtb IC50) [µM] | selectivity (SI) for HepG2 ([3]; HepG2 cytotoxicity / intracellular IC50) | selectivity index (SI) ([6]; HepG2 cells and/or macrophages, cell line not specified) |
| --- | --- | --- | --- | --- | --- | --- | --- | --- | --- | --- | --- | --- | --- | --- | --- | --- | --- | --- | --- |
| O=C(CSc1ccc(Cl)cc1)Nc1ccc(F)c(Cl)c1 [TPN-0006216] | good intracellular activity | 2.8 ± 0.78 | 2.4 ± 0.5 | 33 ± 4 | 44 ± 2 | 33 ± 4 ^b µM | 44 ± 2 ^b µM | > 20 | > 20 | > 20 | 6.9 (≈ 20.9 µM) | >100 ^d µM | >100 ^b µM | > 100 | > 42 | – | – | – | – |
| Cc1ccc(OCC(=O)N2CCCc3ccccc32)cc1 [TPN-0006208] | – | – | 13 | > 100 | > 100 | – | – | – | – | > 20 | – | – | 86 ± 1.0 ^b µM | – | – | had activity | – | – | – |
| O=C(COc1ccccc1)NC12CC3CC(CC(C3)C1)C2 [TPN-0006211] | – | 7.6 ± 3.5 | 7.6 ± 3.5 | 43 ± 1 | 53 ± 1.5 | 43 ± 1 ^b µM | 53 ± 1.5 ^b µM | > 20 | > 20 | > 20 | – | 38 ± 6.0 ^b µM | 38 ± 6.0 ^b µM | – | – | – | – | – | – |
| CC(C)c1ccc(OCC(=O)Nc2nccs2)cc1 [TPN-0006217] | – | 4.9 ± 2.1 | – | 64 ± 1.5 | 91 ± 3 | 64 ± 1.5 ^b µM | 91 ± 3 ^b µM | > 20 | > 20 | > 20 | – | 75 ± 16 ^d µM | – | – | – | – | – | – | – |
| CCc1ccccc1NC(=O)c1c(NC(=O)c2cccc(Cl)c2)sc2c1CCC2 [TPN-0073585] | – | 0.4 ± 0.11 | – | > 25 | > 25 | >25 ^c µM | >25 ^c µM | > 5 | > 5 | > 5 | – | 9.4 ± 1.9 ^c µM | 9.4 ± 1.9 ^c µM | – | – | – | < 5 | > 60 | > 10 |
